In US6211210A, “Diphenyl-1,2,3-thiadiazol-3-oxides, compositions and methods of use” (Merck Frosst Canada & Co., priority 2000, dated 2001):

Experiments:
[1] = target: T1, COX-2 (Homo sapiens, UniProt P35354); assay: Human whole blood assay: COX-2 (LPS-induced PGE2 production); assay type: cell-based; conditions: LPS-induced PGE2, 24 hours at 37° C.
T1 construct: incubation of human whole blood with LPS which induces COX-2; endogenous in cells
T1 sequence (P35354 18-604): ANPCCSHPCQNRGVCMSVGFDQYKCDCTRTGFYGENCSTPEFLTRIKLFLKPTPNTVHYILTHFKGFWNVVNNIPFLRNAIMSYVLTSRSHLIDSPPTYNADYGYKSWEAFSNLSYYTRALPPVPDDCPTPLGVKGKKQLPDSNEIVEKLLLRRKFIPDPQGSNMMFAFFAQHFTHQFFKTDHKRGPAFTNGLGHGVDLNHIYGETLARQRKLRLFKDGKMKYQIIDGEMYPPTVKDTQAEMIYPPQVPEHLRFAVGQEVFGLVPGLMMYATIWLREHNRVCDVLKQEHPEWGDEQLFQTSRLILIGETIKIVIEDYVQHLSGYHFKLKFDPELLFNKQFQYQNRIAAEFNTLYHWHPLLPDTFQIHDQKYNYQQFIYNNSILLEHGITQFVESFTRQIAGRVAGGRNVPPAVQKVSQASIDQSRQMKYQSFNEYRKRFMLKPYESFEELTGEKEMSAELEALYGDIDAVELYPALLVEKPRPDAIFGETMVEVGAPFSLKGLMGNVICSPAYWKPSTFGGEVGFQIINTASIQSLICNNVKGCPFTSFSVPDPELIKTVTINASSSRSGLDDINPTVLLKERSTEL
Excerpt: (§1) As well, platelets in whole blood contain a large amount of the COX-1 enzyme. Immediately following blood clotting, platelets are activated through a thrombin-mediated mechanism. This reaction results in the production of thromboxane B2 (TxB2) via activation of COX-1. Thus, the effect of test compounds on TxB2 levels following blood clotting can be examined and used as an index for COX-1 activity. Therefore, the degree of selectivity by the test compound can be determined by measuring the levels of PGE2 after LPS induction (COX-2) and TxB2 following blood clotting (COX-1) in the same assay.
Fresh blood was collected in heparinized tubes by venipuncture from both male and female volunteers. The subjects had no apparent inflammatory conditions and had not taken any NSAIDs for at least 7 days prior to blood collection. Plasma was immediately obtained from a 2 mL blood aliquot to use as blank (basal levels of PGE2). […] Five hundred μL aliquots of blood were incubated with either […] vehicle (DMSO) or 2 μL of a test compound at final concentrations varying from 10 nM to 30 μM for 24 hours at 37° C. At the end of the incubation, the blood was centrifuged at 12,000×g for 5 minutes to obtain plasma. Protein in the plasma is precipitated by mixing a 100 μL aliquot of plasma with 400 μL of methanol. The supernatant was assayed for PGE2 using a radioimmunoassay kit (Amersham, RPA#530) after conversion of PGE2 to its methyl oximate derivative according to the manufacturer's procedure.
(§2) In the assay, inhibition is determined by measuring the amount of prostaglandin E2 (PGE2) synthesized in the presence of arachidonic acid, COX-1 or COX-2 and a putative inhibitor.

[2] = system: carrageenan paw edema, rats; assay: Rat paw edema assay (carrageenan); assay type: in vivo, Male Sprague-Dawley rats; conditions: po, 1 hr before carrageenan, paw volume 3 hr later, read-out: ED50 (edema inhibition in rat paw)
Method: Male Sprague-Dawley rats (150-200 g) were fasted overnight and were given, po, either vehicle (1% methocel or 5% Tween 80), or a test compound. One hr later, a line was drawn using a permanent marker at the level above the ankle in one hind paw to define the area of the paw to be monitored. The paw volume (V0) was measured using a plethysmometer (Ugo-Basile, Italy) based on the principle of water displacement. The animals were then injected subplantarly with 50 ,l of 1% carrageenan solution in saline (FMC Corp, Maine) into the paw using an insulin syringe with a 25-gauge needle (i.e., 500 μg carrageenan per paw). Three hr later, the paw volume (V3) was measured and the increases in paw volume (V3 -V0) were calculated. The animals were sacrificed by CO2 asphyxiation and the absence or presence of stomach lesions scored. Data were compared with the vehicle-control values and percent inhibition calculated. ED50 values were used for comparison. All treatment groups were coded to eliminate observer bias.

[3] = target: T2, COX-1 (Homo sapiens, UniProt P23219); assay: Human whole blood assay: COX-1 (clotting-induced TxB2 production); assay type: cell-based; conditions: clotting-induced TxB2, 1 hour at 37° C.
T2 construct: platelets in whole blood contain a large amount of the COX-1 enzyme; endogenous in cells; host or cells: platelets in fresh human whole blood
Excerpt: as §1
Fresh blood was collected into vacutainer tubes containing no anticoagulants. […] The tubes were vortexed and incubated at 37° C. for 1 hour to allow blood to clot. Serum was obtained by centrifugation (12,000×g for 5 min). Serum protein is precipitated by mixing a 100 μL aliquot of serum with 400 μL of methanol.
as §2

T2 sequence (P23219 24-599): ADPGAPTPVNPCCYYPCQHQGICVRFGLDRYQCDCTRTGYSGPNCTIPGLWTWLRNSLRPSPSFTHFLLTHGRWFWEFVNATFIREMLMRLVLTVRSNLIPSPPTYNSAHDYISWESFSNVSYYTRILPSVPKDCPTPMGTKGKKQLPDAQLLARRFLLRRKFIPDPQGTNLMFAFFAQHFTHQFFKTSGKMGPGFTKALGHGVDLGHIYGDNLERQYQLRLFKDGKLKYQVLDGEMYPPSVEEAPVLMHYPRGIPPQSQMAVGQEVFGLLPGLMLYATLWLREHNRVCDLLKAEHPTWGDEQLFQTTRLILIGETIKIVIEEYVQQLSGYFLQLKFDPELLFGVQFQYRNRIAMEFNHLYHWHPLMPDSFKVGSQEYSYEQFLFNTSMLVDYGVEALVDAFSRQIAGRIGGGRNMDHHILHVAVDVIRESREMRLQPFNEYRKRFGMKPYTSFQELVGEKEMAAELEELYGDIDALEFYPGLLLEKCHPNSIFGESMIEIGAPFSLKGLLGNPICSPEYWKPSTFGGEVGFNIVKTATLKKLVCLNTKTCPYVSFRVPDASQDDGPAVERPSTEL

Compound | IC50 [1] [nM] | ED50 [2] [mg/kg] | IC50 [3] [nM]
CS(=O)(=O)c1ccc(-c2sn[n+]([O-])c2-c2ccccc2)cc1 [Example 1, 4-PHENYL-5-(4-(METHYLSULFONYL)PHENYL-1-2-3--THIADIAZOL-3-OXIDE] | 600 | 0.9 | 38000
CS(=O)(=O)c1ccc(-c2sn[n+]([O-])c2-c2ccc(F)cc2)cc1 [Example 2, 4-(4-FLUOROPHENYL)-5-(4-(METHYLSULFONYL)PHENYL-1-2-3-THIADIAZOL-3-OXIDE] | 600 | 0.5 | 18000
CS(=O)(=O)c1ccc(-c2sn[n+]([O-])c2-c2cccc(F)c2)cc1 [Example 3, 4-(3-FLUOROPHENYL)-5-(4-(METHYLSULFONYL)PHENYL-1-2-3-THIADIAZOL-3-OXIDE] | 1300 | – | 88000
CS(=O)(=O)c1ccc(-c2sn[n+]([O-])c2-c2ccc(F)c(F)c2)cc1 [Example 4, 4-(3,4-DIFLUOROPHENYL)-5-(4-(METHYLSULFONYL)PHENYL-1-2-3-THIADIAZOL-3-OXIDE] | 500 | – | 57000
CS(=O)(=O)c1ccc(-c2sn[n+]([O-])c2-c2cccc(Cl)c2)cc1 [Example 5, 4-(3-CHLOROPHENYL)-5-(4-(METHYLSULFONYL)PHENYL-1-2-3-THIADIAZOL-3-OXIDE] | 500 | 1.5 | –
COc1ccc2c(c1)c(CC(=O)O)c(C)n2C(=O)c1ccc(Cl)cc1 [Indomethacin, reference compound] | – | 2 | –
